Assay results taken from PubChem BioAssay AID1982 (Sanford-Burnham Center for Chemical Genomics, 2009).
The source made the active and inactive calls. The rule behind the calls is not given here.

Experiments:
Assay in all cases: kinase panel binding selectivity, selectivity assay, biochemical, KINOMEscan (AID 1982)
[1] = system: AAK1; conditions: KINOMEscan 353-kinase binding panel, qPCR, at 10 µM, stronger effect = lower value
[2] = system: BMPR1B; conditions: KINOMEscan 353-kinase binding panel, qPCR, at 10 µM, stronger effect = lower value
[3] = system: CDC2L1; conditions: KINOMEscan 353-kinase binding panel, qPCR, at 10 µM, stronger effect = lower value
[4] = biological target: Calcium/calmodulin-dependent protein kinase type 1 (Homo sapiens) (UniProt Q14012); conditions: KINOMEscan 353-kinase binding panel, qPCR; CAMK1; at 10 µM; stronger effect = lower value
Sequence of Calcium/calmodulin-dependent protein kinase type 1 (Homo sapiens) (Q14012 whole entry, looked up): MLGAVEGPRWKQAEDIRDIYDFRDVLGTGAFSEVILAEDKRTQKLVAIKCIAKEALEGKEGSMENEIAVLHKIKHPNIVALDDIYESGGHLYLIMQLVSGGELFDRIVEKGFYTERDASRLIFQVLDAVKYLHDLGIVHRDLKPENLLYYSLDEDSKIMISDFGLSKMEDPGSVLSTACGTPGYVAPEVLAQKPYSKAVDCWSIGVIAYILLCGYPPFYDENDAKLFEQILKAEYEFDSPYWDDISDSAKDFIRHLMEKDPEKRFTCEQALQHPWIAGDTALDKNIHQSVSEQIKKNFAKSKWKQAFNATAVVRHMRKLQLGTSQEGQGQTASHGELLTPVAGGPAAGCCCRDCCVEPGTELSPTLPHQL

[5] = biological target: Calcium/calmodulin-dependent protein kinase type II subunit gamma (Homo sapiens) (UniProt Q13555); conditions: KINOMEscan 353-kinase binding panel, qPCR; CAMK2G; at 10 µM; stronger effect = lower value
Sequence of Calcium/calmodulin-dependent protein kinase type II subunit gamma (Homo sapiens) (Q13555 whole entry, looked up, canonical isoform): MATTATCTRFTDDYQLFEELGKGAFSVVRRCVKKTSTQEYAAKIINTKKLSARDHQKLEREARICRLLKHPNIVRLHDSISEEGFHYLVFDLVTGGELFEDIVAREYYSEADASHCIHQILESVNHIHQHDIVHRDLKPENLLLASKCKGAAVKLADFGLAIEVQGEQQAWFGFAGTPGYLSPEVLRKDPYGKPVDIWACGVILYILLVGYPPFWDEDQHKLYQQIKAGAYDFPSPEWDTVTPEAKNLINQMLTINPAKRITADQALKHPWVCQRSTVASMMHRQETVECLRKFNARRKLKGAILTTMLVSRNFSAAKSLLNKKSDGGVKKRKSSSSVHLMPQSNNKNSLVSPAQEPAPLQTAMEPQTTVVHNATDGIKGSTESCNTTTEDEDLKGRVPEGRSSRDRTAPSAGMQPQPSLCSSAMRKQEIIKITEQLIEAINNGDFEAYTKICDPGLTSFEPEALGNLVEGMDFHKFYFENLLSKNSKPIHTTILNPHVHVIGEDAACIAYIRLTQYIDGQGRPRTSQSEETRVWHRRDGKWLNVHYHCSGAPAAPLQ

[6] = biological target: Casein kinase I isoform gamma-3 (Homo sapiens) (UniProt Q9Y6M4); conditions: KINOMEscan 353-kinase binding panel, qPCR; CSNK1G3; at 10 µM; stronger effect = lower value
Sequence of Casein kinase I isoform gamma-3 (Homo sapiens) (Q9Y6M4 whole entry, looked up, canonical isoform): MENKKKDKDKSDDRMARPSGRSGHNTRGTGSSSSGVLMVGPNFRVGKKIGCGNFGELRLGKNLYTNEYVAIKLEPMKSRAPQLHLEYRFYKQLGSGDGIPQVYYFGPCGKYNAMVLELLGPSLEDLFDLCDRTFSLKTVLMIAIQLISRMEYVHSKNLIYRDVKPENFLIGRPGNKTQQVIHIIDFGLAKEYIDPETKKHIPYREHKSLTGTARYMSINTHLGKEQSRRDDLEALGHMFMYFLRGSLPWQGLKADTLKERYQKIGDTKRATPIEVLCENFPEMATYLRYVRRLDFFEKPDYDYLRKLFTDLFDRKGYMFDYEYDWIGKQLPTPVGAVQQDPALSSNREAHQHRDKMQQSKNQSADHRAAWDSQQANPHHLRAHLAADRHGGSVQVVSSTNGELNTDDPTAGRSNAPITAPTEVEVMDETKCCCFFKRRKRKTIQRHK

[7] = biological target: Cyclin-dependent kinase 2 (Homo sapiens) (UniProt P24941); conditions: KINOMEscan 353-kinase binding panel, qPCR; CDK2; at 10 µM; stronger effect = lower value
[8] = biological target: Cyclin-dependent kinase 8 (Homo sapiens) (UniProt P49336); conditions: KINOMEscan 353-kinase binding panel, qPCR; CDK8; at 10 µM; stronger effect = lower value
Sequence of Cyclin-dependent kinase 8 (Homo sapiens) (P49336 whole entry, looked up): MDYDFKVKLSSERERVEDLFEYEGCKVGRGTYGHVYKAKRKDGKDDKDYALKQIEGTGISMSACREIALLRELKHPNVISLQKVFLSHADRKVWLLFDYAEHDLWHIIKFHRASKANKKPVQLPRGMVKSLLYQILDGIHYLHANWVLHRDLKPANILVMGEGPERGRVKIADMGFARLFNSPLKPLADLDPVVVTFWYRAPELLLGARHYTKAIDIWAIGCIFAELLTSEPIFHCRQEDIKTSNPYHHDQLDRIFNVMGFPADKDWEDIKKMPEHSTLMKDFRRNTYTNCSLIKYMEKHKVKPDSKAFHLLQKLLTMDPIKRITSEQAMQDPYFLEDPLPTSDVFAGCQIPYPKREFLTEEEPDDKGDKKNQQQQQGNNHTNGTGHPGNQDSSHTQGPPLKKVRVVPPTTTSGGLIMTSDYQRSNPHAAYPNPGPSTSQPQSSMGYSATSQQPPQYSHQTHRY

[9] = system: DCAMKL2; conditions: KINOMEscan 353-kinase binding panel, qPCR, at 10 µM, stronger effect = lower value
[10] = system: DRAK2; conditions: KINOMEscan 353-kinase binding panel, qPCR, at 10 µM, stronger effect = lower value
[11] = system: EPHB4; conditions: KINOMEscan 353-kinase binding panel, qPCR, at 10 µM, stronger effect = lower value
[12] = system: ERK3; conditions: KINOMEscan 353-kinase binding panel, qPCR, at 10 µM, stronger effect = lower value
[13] = system: ERK4; conditions: KINOMEscan 353-kinase binding panel, qPCR, at 10 µM, stronger effect = lower value
[14] = system: FGFR2; conditions: KINOMEscan 353-kinase binding panel, qPCR, at 10 µM, stronger effect = lower value
[15] = system: JAK1(Kin.Dom.1); conditions: KINOMEscan 353-kinase binding panel, qPCR, at 10 µM, stronger effect = lower value
[16] = system: MAP3K4; conditions: KINOMEscan 353-kinase binding panel, qPCR, at 10 µM, stronger effect = lower value
[17] = system: MEK4; conditions: KINOMEscan 353-kinase binding panel, qPCR, at 10 µM, stronger effect = lower value
[18] = system: MKNK1; conditions: KINOMEscan 353-kinase binding panel, qPCR, at 10 µM, stronger effect = lower value
[19] = system: MRCKB; conditions: KINOMEscan 353-kinase binding panel, qPCR, at 10 µM, stronger effect = lower value
[20] = biological target: Maternal embryonic leucine zipper kinase (Homo sapiens) (UniProt Q14680); conditions: KINOMEscan 353-kinase binding panel, qPCR; MELK; at 10 µM; stronger effect = lower value
[21] = system: NEK7; conditions: KINOMEscan 353-kinase binding panel, qPCR, at 10 µM, stronger effect = lower value
[22] = system: NEK9; conditions: KINOMEscan 353-kinase binding panel, qPCR, at 10 µM, stronger effect = lower value
[23] = biological target: RAF proto-oncogene serine/threonine-protein kinase (Homo sapiens) (UniProt P04049); conditions: KINOMEscan 353-kinase binding panel, qPCR; RAF1; at 10 µM; stronger effect = lower value
[24] = system: RPS6KA2(Kin.Dom.1); conditions: KINOMEscan 353-kinase binding panel, qPCR, at 10 µM, stronger effect = lower value
[25] = biological target: Serine/threonine-protein kinase 3 (Homo sapiens) (UniProt Q13188); conditions: KINOMEscan 353-kinase binding panel, qPCR; MST2; at 10 µM; stronger effect = lower value
Sequence of Serine/threonine-protein kinase 3 (Homo sapiens) (Q13188 whole entry, looked up): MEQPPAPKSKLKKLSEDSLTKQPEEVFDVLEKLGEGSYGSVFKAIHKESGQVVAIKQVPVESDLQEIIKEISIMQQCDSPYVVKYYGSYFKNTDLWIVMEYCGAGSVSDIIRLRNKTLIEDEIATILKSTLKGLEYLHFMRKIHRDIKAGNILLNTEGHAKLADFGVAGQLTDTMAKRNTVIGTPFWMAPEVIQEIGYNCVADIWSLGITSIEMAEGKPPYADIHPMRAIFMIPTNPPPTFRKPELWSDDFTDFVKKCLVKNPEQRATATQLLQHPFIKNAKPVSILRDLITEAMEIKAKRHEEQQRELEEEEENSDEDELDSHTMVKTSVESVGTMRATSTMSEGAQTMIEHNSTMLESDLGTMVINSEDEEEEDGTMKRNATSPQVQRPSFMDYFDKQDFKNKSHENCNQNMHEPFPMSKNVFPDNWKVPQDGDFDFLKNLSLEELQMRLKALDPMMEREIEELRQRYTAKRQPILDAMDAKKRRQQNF

[26] = biological target: Serine/threonine-protein kinase Chk1 (Homo sapiens) (UniProt O14757); conditions: KINOMEscan 353-kinase binding panel, qPCR; CHEK1; at 10 µM; stronger effect = lower value
Sequence of Serine/threonine-protein kinase Chk1 (Homo sapiens) (O14757 whole entry, looked up): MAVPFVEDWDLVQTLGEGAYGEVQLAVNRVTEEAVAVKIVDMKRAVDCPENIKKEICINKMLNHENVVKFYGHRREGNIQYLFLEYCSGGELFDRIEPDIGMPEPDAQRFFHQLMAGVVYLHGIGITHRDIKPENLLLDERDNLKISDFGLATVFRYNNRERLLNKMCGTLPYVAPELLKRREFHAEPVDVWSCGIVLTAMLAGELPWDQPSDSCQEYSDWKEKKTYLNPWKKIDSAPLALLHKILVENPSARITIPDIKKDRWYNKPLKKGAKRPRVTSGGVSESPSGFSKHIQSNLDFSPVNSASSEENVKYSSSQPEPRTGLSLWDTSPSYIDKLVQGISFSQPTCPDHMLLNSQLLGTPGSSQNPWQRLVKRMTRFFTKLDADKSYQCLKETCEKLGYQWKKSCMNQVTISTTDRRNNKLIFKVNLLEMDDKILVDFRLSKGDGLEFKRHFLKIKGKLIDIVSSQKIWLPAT

[27] = biological target: Serine/threonine-protein kinase PLK3 (Homo sapiens) (UniProt Q9H4B4); conditions: KINOMEscan 353-kinase binding panel, qPCR, at 10 µM, stronger effect = lower value
Sequence of Serine/threonine-protein kinase PLK3 (Homo sapiens) (Q9H4B4 whole entry, looked up): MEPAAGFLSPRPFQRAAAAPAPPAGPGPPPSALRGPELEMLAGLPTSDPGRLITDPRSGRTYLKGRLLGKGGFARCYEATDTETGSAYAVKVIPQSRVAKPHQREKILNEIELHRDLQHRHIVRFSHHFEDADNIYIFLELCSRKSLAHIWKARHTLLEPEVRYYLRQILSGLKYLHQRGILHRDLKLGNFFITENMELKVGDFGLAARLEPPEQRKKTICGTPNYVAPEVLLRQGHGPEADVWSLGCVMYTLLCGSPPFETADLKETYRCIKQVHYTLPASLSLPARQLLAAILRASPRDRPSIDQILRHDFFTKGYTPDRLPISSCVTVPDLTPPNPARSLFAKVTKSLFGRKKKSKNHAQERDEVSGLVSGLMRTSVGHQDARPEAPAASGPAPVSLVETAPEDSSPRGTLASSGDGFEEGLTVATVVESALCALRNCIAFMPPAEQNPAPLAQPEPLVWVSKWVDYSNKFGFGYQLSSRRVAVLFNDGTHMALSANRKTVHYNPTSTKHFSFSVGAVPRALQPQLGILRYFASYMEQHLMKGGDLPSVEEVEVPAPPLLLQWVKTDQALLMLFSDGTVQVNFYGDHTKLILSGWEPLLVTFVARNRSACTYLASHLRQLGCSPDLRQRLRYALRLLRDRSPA

[28] = system: SgK085; conditions: KINOMEscan 353-kinase binding panel, qPCR, at 10 µM, stronger effect = lower value
[29] = system: TNNI3K; conditions: KINOMEscan 353-kinase binding panel, qPCR, at 10 µM, stronger effect = lower value
[30] = system: TXK; conditions: KINOMEscan 353-kinase binding panel, qPCR, at 10 µM, stronger effect = lower value
[31] = biological target: Testis-specific serine/threonine-protein kinase 1 (Homo sapiens) (UniProt Q9BXA7); conditions: KINOMEscan 353-kinase binding panel, qPCR; TSSK1; at 10 µM; stronger effect = lower value
Sequence of Testis-specific serine/threonine-protein kinase 1 (Homo sapiens) (Q9BXA7 whole entry, looked up): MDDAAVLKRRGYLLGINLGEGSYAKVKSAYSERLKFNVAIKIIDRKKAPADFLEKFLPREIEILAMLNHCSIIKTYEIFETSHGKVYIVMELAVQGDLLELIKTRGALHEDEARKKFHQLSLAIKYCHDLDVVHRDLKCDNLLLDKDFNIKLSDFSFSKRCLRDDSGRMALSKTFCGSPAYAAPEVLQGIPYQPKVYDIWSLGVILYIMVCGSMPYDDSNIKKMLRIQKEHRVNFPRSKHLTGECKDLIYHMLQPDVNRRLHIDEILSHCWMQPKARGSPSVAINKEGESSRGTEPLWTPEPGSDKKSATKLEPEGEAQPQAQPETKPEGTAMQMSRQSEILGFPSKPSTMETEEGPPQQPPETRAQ

[32] = biological target: Tyrosine-protein kinase ABL1 (Homo sapiens) (UniProt P00519); conditions: KINOMEscan 353-kinase binding panel, qPCR, at 10 µM, stronger effect = lower value
Sequence of Tyrosine-protein kinase ABL1 (Homo sapiens) (P00519 whole entry, looked up): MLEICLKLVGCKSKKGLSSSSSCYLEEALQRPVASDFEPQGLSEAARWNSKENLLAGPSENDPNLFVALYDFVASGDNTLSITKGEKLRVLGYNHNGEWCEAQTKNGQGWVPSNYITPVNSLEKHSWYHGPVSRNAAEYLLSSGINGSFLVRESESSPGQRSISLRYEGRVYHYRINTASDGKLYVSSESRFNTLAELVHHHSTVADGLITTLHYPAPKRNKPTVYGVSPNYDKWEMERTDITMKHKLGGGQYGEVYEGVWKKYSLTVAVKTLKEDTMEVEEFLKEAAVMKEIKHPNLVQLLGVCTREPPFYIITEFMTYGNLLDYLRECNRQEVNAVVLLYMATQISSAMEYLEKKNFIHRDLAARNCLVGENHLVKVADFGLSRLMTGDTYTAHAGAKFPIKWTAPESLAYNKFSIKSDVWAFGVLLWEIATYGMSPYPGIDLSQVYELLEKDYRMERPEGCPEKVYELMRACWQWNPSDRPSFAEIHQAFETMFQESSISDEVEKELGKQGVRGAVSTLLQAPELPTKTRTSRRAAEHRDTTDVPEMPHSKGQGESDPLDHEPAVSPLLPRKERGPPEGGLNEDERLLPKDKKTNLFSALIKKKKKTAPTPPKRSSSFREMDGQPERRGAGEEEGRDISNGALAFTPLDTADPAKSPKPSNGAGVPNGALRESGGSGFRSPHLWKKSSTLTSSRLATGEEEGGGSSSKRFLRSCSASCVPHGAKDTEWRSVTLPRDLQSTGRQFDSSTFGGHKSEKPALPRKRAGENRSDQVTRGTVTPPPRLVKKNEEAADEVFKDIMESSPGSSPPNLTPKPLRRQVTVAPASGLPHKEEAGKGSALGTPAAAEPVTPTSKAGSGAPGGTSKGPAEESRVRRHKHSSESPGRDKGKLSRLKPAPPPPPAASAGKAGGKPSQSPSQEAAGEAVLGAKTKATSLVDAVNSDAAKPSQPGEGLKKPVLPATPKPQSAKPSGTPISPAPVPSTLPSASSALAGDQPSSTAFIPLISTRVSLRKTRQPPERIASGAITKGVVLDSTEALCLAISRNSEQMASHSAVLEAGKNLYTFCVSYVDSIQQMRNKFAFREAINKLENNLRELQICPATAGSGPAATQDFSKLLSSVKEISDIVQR

[33] = biological target: Uncharacterized serine/threonine-protein kinase SBK3 (Homo sapiens) (UniProt P0C264); conditions: KINOMEscan 353-kinase binding panel, qPCR; SgK110; at 10 µM; stronger effect = lower value
[34] = biological target: Vascular endothelial growth factor receptor 2 (Homo sapiens) (UniProt P35968); conditions: KINOMEscan 353-kinase binding panel, qPCR; VEGFR2; at 10 µM; stronger effect = lower value
[35] = system: YSK1; conditions: KINOMEscan 353-kinase binding panel, qPCR, at 10 µM, stronger effect = lower value

Measured: percent of control binding

Cc1cc2nc(NCCCO)n(CC(=O)c3cc(C(C)(C)C)c(O)c(C(C)(C)C)c3)c2cc1C
inactive: [1] 100% | [2] 100% | [3] 81% | [4] 100% | [5] 100% | [6] 100% | [7] 95% | [8] 93% | [9] 89% | [10] 100% | [11] 98% | [12] 86% | [13] 100% | [14] 100% | [15] 100% | [16] 90% | [17] 79% | [18] 75% | [19] 100% | [20] 93% | [21] 97% | [22] 100% | [23] 43% | [24] 90% | [25] 100% | [26] 100% | [27] 100% | [28] 99% | [29] 82% | [30] 99% | [31] 100% | [32] 100% | [32]; ABL1(E255K) 94% | [32]; ABL1(F317I) 100% | [32]; ABL1(F317L) 92% | [32]; ABL1(H396P) 98% | [32]; ABL1(M351T) 100% | [32]; ABL1(Q252H) 100% | [32]; ABL1(T315I) 86% | [32]; ABL1(Y253F) 100% | [33] 96% | [34] 88% | [35] 84%
